Among the data in PubChem BioAssay (NCI) are TGI values, retold here.

Some test systems named below: A498 renal; A549 NSCLC; CAKI-1 renal; CCRF-CEM leukemia; MDA-MB-435; OVCAR-8 ovarian; RPMI-8226 leukemia; SK-MEL-2 melanoma; U251 CNS; UO-31 renal.
What all share (assay): NCI anticancer screen, dose series, 48 h

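Interpolation was linear, between the two tested concentrations surrounding the appropriate level; five concentrations were tested over 48 hours in 96-well plates. TGI denotes the concentration required for complete inhibition of growth.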 Some results are limits rather than exact numbers.

`CC(C)NC(=O)OCc1c(COC(=O)NC(C)C)c(-c2cc[n+](COC(=O)C3CCCCC3)cc2)n2c1CCC2`: the TGI in the experiment on A498 renal, in the experiment on A549 NSCLC, in the experiment on CAKI-1 renal, with CCRF-CEM leukemia, with MDA-MB-435 and with OVCAR-8 ovarian was greater than 100 µM throughout. Moreover, the TGI in the experiment with RPMI-8226 leukemia, in the experiment on SK-MEL-2 melanoma, in the experiment on U251 CNS and with UO-31 renal was greater than 100 µM in each case.

In the case of `O=C(N/N=C\c1ccc([N+](=O)[O-])s1)c1ccncc1`, the TGI with A498 renal is 53 µM; in the experiment on A549 NSCLC it was greater than 66.3 µM; in the experiment with CAKI-1 renal, 49.2 µM; in the experiment on CCRF-CEM leukemia it was greater than 29.1 µM; in the experiment on MDA-MB-435 it was greater than 55 µM; in the experiment on OVCAR-8 ovarian, 49.2 µM. Also, the TGI with RPMI-8226 leukemia was greater than 41.3 µM; with SK-MEL-2 melanoma, 68.5 µM; in the experiment on U251 CNS it was greater than 63.8 µM; with UO-31 renal it was greater than 38.5 µM.

Consider `O=c1[nH]nc(-c2ccccc2)n1-n1cnnc1`, for which the TGI with A498 renal, in the experiment with A549 NSCLC, in the experiment on CAKI-1 renal, with CCRF-CEM leukemia, with MDA-MB-435 and in the experiment with OVCAR-8 ovarian was greater than 100 µM in each case. The TGI in the experiment on RPMI-8226 leukemia, in the experiment with SK-MEL-2 melanoma, in the experiment with U251 CNS and in the experiment with UO-31 renal was greater than 100 µM each time.

Turning to `CCOC(=O)C1=C(C)N(Cc2ccccc2)C2(O)C=CC(=O)C3=C(O)c4ccccc4C(=O)C312` (stereo not given), the TGI with A498 renal was determined as 60.3 µM; in the experiment on A549 NSCLC, 39.8 µM; in the experiment on CAKI-1 renal it was 37.2 µM; in the experiment on CCRF-CEM leukemia it was 36.5 µM; in the experiment on MDA-MB-435, 27.5 µM; in the experiment with OVCAR-8 ovarian, 39 µM. Also, the TGI in the experiment with RPMI-8226 leukemia was 31.2 µM; in the experiment on SK-MEL-2 melanoma, 30.4 µM; in the experiment with U251 CNS, 38.5 µM; in the experiment on UO-31 renal it was 21.5 µM.

Regarding `C[C@H](CCC(=O)NCC(=O)O)[C@H]1CC[C@H]2[C@@H]3[C@H](O)C[C@@H]4C[C@H](O)CC[C@]4(C)[C@H]3CC[C@]12C`, the TGI in the experiment on A498 renal, in the experiment with A549 NSCLC, with CAKI-1 renal, in the experiment on CCRF-CEM leukemia, in the experiment with MDA-MB-435 and in the experiment on OVCAR-8 ovarian was greater than 100 µM throughout. Moreover, the TGI in the experiment with RPMI-8226 leukemia, in the experiment on SK-MEL-2 melanoma, in the experiment on U251 CNS and in the experiment with UO-31 renal was greater than 100 µM in each case.

As for `O=C(O)c1ccc(N/C(=C(/C(Cl)=C(Cl)Cl)[N+](=O)[O-])n2nnc3ccccc32)cc1`, the TGI in the experiment on A498 renal, in the experiment on A549 NSCLC, in the experiment on CAKI-1 renal, with CCRF-CEM leukemia, in the experiment with MDA-MB-435 and in the experiment on OVCAR-8 ovarian was greater than 100 µM in each case. The TGI in the experiment with RPMI-8226 leukemia, in the experiment on SK-MEL-2 melanoma, with U251 CNS and in the experiment on UO-31 renal was greater than 100 µM throughout.

Turning to `O=C1c2cc([N+](=O)[O-])sc2C(=O)c2c([N+](=O)[O-])csc21`, the TGI in the experiment on A498 renal was 3.34 µM; in the experiment on A549 NSCLC, 3.56 µM; in the experiment with CAKI-1 renal it was 2.48 µM; in the experiment on CCRF-CEM leukemia it was 0.389 µM; in the experiment on MDA-MB-435, 0.311 µM; in the experiment with OVCAR-8 ovarian, 3.04 µM. For the same molecule, the TGI in the experiment with RPMI-8226 leukemia is 0.934 µM; in the experiment on SK-MEL-2 melanoma it was 3.77 µM; in the experiment on U251 CNS it was 1.01 µM; in the experiment on UO-31 renal, 3.37 µM.

Regarding `CN1CCN([C@H]2C[C@H]3[C@@H]4CC=C5C[C@@H](O)CC[C@]5(C)[C@H]4CC[C@]3(C)[C@H]2O)CC1`, the TGI in the experiment on A498 renal is greater than 100 µM; with A549 NSCLC it was greater than 100 µM; in the experiment with CAKI-1 renal, greater than 100 µM; in the experiment on CCRF-CEM leukemia, 57.1 µM; in the experiment with MDA-MB-435, 31 µM; in the experiment with OVCAR-8 ovarian, greater than 57.1 µM. Moreover, the TGI in the experiment with RPMI-8226 leukemia was 50.6 µM; in the experiment with SK-MEL-2 melanoma it was greater than 100 µM; in the experiment on U251 CNS it was 32.8 µM; in the experiment with UO-31 renal, greater than 100 µM.

As for `C=C1C(=O)OC2C3OC(C)(CCC(O)C3COC(C)=O)CC(OC(=O)/C(=C/C)COC(C)=O)C12` (stereo not given), the TGI turned out to be 3.05 µM in the experiment on A498 renal; 22.1 µM in the experiment with A549 NSCLC; 0.39 µM with CAKI-1 renal; 0.269 µM in the experiment on CCRF-CEM leukemia; 12.6 µM with MDA-MB-435; 20 µM in the experiment with OVCAR-8 ovarian. Moreover, the TGI in the experiment on RPMI-8226 leukemia was found to be 0.339 µM; with SK-MEL-2 melanoma it was 6.96 µM; in the experiment on U251 CNS, 2.88 µM; in the experiment on UO-31 renal, 0.807 µM.
